# Tests used:
# xMDA-MB-361 breast tumor = xMDA-MB-361 breast tumor model (ER-positive/HER2-positive); assay type: in vivo, female BALB/c nude mice; settings: Group 3: Tucatinib 60 mg/kg PO QD*42 days
# Description: Trastuzumab, tucatinib, Compound (I), and fulvestrant were tested in a xMDA-MB-361 breast tumor model (ER-positive/HER2-positive) on female BALB/c nude mice.
# xBT474 breast tumor = xBT474 breast tumor model (ER-negative/HER2-positive); settings: Group 3: Tucatinib 25 mg/kg PO QD*28 days
# VCap prostate cancer = test: Non-castrated VCap prostate cancer model; assay type: in vivo, male CB17/Scid mice; settings: Group 7: Abiraterone 350 mg/kg p.o. QD * 26 days
# Description: Compound (I), enzalutamide, and abiraterone were tested in non-castrated VCap prostate cancer model in male CB17/Scid mice.
# All treatment groups reduced mean tumor volume.
smiles,measurement,setting,value
Cc1cc(Nc2ncnc3ccc(NC4=NC(C)(C)CO4)cc23)ccc1Oc1ccn2ncnc2c1 [Tucatinib],Tumor volume (mean ± SEM),xMDA-MB-361 breast tumor; Day 0,157 ± 11 mm^3
same,Tumor volume (mean ± SEM),xMDA-MB-361 breast tumor; Day 3,148 ± 11 mm^3
same,Tumor volume (mean ± SEM),xMDA-MB-361 breast tumor; Day 7,156 ± 20 mm^3
same,Tumor volume (mean ± SEM),xMDA-MB-361 breast tumor; Day 10,219 ± 30 mm^3
same,Tumor volume (mean ± SEM),xMDA-MB-361 breast tumor; Day 14,408 ± 59 mm^3
same,Tumor volume (mean ± SEM),xMDA-MB-361 breast tumor; Day 17,658 ± 112 mm^3
same,Tumor volume (mean ± SEM),xMDA-MB-361 breast tumor; Day 21,970 ± 206 mm^3
same,Tumor volume (mean ± SEM),xMDA-MB-361 breast tumor; Day 24,1185 ± 222 mm^3
same,Tumor volume (mean ± SEM),xMDA-MB-361 breast tumor; Day 28,1496 ± 250 mm^3
same,Tumor volume (mean ± SEM),xMDA-MB-361 breast tumor; Day 31,1707 ± 309 mm^3
same,Tumor volume (mean ± SEM),xMDA-MB-361 breast tumor; Day 35,1580 ± 240 mm^3
same,Tumor volume (mean ± SEM),xMDA-MB-361 breast tumor; Day 38,1675 ± 283 mm^3
same,Tumor volume (mean ± SEM),xMDA-MB-361 breast tumor; Day 42,1670 ± 344 mm^3
same,Tumor volume (mean ± SEM),xBT474 breast tumor; Day 0,146 ± 10 mm^3
same,Tumor volume (mean ± SEM),xBT474 breast tumor; Day 4,177 ± 11 mm^3
same,Tumor volume (mean ± SEM),xBT474 breast tumor; Day 7,199 ± 19 mm^3
same,Tumor volume (mean ± SEM),xBT474 breast tumor; Day 11,168 ± 16 mm^3
same,Tumor volume (mean ± SEM),xBT474 breast tumor; Day 14,169 ± 15 mm^3
same,Tumor volume (mean ± SEM),xBT474 breast tumor; Day 18,234 ± 28 mm^3
same,Tumor volume (mean ± SEM),xBT474 breast tumor; Day 21,288 ± 35 mm^3
same,Tumor volume (mean ± SEM),xBT474 breast tumor; Day 25,341 ± 47 mm^3
same,Tumor volume (mean ± SEM),xBT474 breast tumor; Day 28,397 ± 68 mm^3
same,Tumor volume (mean ± SEM),xBT474 breast tumor; Day 32,406 ± 96 mm^3
same,Tumor volume (mean ± SEM),xBT474 breast tumor; Day 35,488 ± 112 mm^3
same,Tumor volume (mean ± SEM),xBT474 breast tumor; Day 39,420 ± 91 mm^3
same,Tumor volume (mean ± SEM),xBT474 breast tumor; Day 42,431 ± 89 mm^3
same,Tumor volume (mean ± SEM),xBT474 breast tumor; Day 46,421 ± 81 mm^3
"C[C@]12CC[C@H](O)CC1=CC[C@@H]1[C@@H]2CC[C@]2(C)C(c3cccnc3)=CC[C@@H]12 [Abiraterone, abiraterone, reference compound]",Tumor volume (mean ± SEM),VCap prostate cancer; Day 0,171.7 ± 5.9 mm^3
same,Tumor volume (mean ± SEM),VCap prostate cancer; Day 4,278 ± 22.9 mm^3
same,Tumor volume (mean ± SEM),VCap prostate cancer; Day 7,365.9 ± 35.9 mm^3
same,Tumor volume (mean ± SEM),VCap prostate cancer; Day 11,582.6 ± 43.3 mm^3
same,Tumor volume (mean ± SEM),VCap prostate cancer; Day 14,762.2 ± 73.7 mm^3
same,Tumor volume (mean ± SEM),VCap prostate cancer; Day 18,985.6 ± 86.7 mm^3
same,Tumor volume (mean ± SEM),VCap prostate cancer; Day 21,1056.1 ± 83.2 mm^3
same,Tumor volume (mean ± SEM),VCap prostate cancer; Day 25,1184.9 ± 82.6 mm^3

# From patent publication US20230000876A1, “TREATING CANCERS WITH A CYCLIN-DEPENDENT KINASE INHIBITOR” (Nuvation Bio Inc., priority 2021, published 2023)
